For one experiment, the target named is BTK (Homo sapiens (Human), UniProt Q06187). In words: In vitro BTK kinase assay: Btk-PolyGAT-LS assay. The format is biochemical. Conditions: ATP 10 μM, polyGAT 100 nM, BTK 0.25 nM, 30 minutes.
The test system of experiment [1] is CD69 expression on CD19+ B cells in human whole blood. The experiment is described as follows: In vitro whole blood CD69 assay. To be noted: B-cell. It counts as cell-based.
The mark [2] stands for this setting: Whole Blood CD69 inhibition, human heparinized blood, anti-human IgD stimulation, CD19+ B cells expressing CD69, read-out: IC50.

Where two headings read alike, the source gives them in different places. Bounds are passed on as bounds.

Experimental findings from US12570631B2, “Substituted N-(4-(pyrimidin and pyridin-4-yl)benzylcarboxamides and its use for treating disorders responsive to inhibition of Btk” (BIOGEN MA INC., priority 2019, dated 2026) are described below.

For orientation: IC50 means the concentration that gives 50% inhibition.

Sequence of BTK (Q06187 whole entry): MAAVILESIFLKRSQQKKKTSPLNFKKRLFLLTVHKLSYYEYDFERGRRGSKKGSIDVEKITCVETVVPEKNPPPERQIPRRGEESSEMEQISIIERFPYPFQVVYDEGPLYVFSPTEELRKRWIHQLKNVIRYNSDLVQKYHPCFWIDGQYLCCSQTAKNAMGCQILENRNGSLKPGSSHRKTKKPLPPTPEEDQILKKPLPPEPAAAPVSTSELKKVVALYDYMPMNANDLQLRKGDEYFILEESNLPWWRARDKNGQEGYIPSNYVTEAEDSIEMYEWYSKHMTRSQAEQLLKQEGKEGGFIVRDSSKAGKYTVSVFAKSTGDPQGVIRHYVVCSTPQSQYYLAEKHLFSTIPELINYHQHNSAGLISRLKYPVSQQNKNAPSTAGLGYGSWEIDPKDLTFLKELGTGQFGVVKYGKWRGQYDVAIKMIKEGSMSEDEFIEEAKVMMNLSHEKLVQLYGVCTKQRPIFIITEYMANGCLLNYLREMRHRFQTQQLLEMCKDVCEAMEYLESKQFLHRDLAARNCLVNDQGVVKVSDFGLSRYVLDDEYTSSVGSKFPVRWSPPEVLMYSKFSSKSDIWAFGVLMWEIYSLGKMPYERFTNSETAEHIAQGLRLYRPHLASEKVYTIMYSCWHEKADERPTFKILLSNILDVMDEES

For the compound `C=CC(=O)N1CCCC[C@H]1C(=O)Nc1cnccc1-c1ccc(CNC(=O)c2noc(C(C)(C)C)n2)c(C)c1` [Example 32, (S)-N-(4-(3-(1-acryloylpiperidine-2-carboxamido)pyridin-4-yl)-2-methylbenzyl)-5-(tert-butyl)-1,2,4-oxadiazole-3-carboxamide], the figures for the IC50 (against BTK; in experiment [1] (setting [2])) were less than 1 nM and less than 100 nM, respectively.

In the case of `C=CC(=O)N(C)CCOc1c(N)ncnc1-c1ccc(CNC(=O)c2noc(C(C)(C)C)n2)c(C)c1` [Example 2, N-(4-(6-amino-5-(2-(N-methylacrylamido)ethoxy)pyrimidin-4-yl)-2-methylbenzyl)-5-(tert-butyl)-1,2,4-oxadiazole-3-carboxamide], the figures for the IC50 (against BTK; in experiment [1] (Homo sapiens)) were less than 1 nM and less than 100 nM, respectively.

Take `C=CC(=O)N(C)CCOc1c(N)ncnc1-c1ccc(CNC(=O)c2cnn(C(C)(C)C)c2)c(C)c1` [Example 10, N-(4-(6-amino-5-(2-(N-methylacrylamido)ethoxy)pyrimidin-4-yl)-2-methylbenzyl)-1-(tert-butyl)-1H-pyrazole-4-carboxamide]: the IC50 is less than 1 nM against BTK and less than 100 nM in experiment [1] (setting [2]).

For the compound `C=CC(=O)N1CC[C@H](Oc2cnccc2-c2ccc(CNC(=O)c3cn(C(C)(C)C)nn3)c(C)c2)C1` (single isomer, unassigned) [Example 36], the concentration for half-maximal inhibition (IC50) at BTK is 1 to 10 nM; in experiment [1] (setting [2]) it was more than 1000 nM.

Consider `C=CC(=O)N1CCC(Oc2cnccc2-c2ccc(CNC(=O)c3cn(C(C)(C)C)nn3)c(C)c2)CC1` [Example 37, N-(4-(3-((1-acryloylpiperidin-4-yl)oxy)pyridin-4-yl)-2-methylbenzyl)-1-(tert-butyl)-1H-1,2,3-triazole-4-carboxamide], for which the IC50 was less than 1 nM on BTK and more than 1000 nM in experiment [1] (setting [2]).

As to `C=CC(=O)N(C)CCOc1cnccc1-c1ccc(CN2CCc3c(cnn3C(C)(C)C)C2=O)c(C)c1` [Example 12, N-(2-((4-(4-((1-(tert-butyl)-4-oxo-1,4,6,7-tetrahydro-5H-pyrazolo[4,3-c]pyridin-5-yl)methyl)-3-methylphenyl)pyridin-3-yl)oxy)ethyl)-N-methylacrylamide], the values for the IC50 (at BTK; in experiment [1] (setting [2])) were less than 1 nM and 100 to 1000 nM, respectively.

For the compound `C=CC(=O)N1CC(Oc2cnccc2-c2ccc(CNC(=O)c3cn(C(C)(C)C)nn3)c(C)c2)C1` [Example 33, N-(4-(3-((1-acryloylazetidin-3-yl)oxy)pyridin-4-yl)-2-methylbenzyl)-1-(tert-butyl)-1H-1,2,3-triazole-4-carboxamide], the half-maximal inhibitory concentration (IC50) was 1 to 10 nM against BTK and more than 1000 nM in experiment [1] (Homo sapiens).

As to `C=CC(=O)N1CCCC1COc1cnccc1-c1ccc(CNC(=O)c2cn(C(C)(C)C)nn2)c(C)c1F` (stereo not shown) [Example 49, N-(4-(3-((1-acryloylpyrrolidin-2-yl)methoxy)pyridin-4-yl)-3-fluoro-2-methylbenzyl)-1-(tert-butyl)-1H-1,2,3-triazole-4-carboxamide], the IC50 is 1 to 10 nM at BTK and more than 1000 nM in experiment [1] (setting [2]).

Take `C=CC(=O)N(C)CCOc1c(N)ncnc1-c1ccc(CNC(=O)c2nc(C(C)(C)C)no2)c(C)c1` [Example 7, N-(4-(6-amino-5-(2-(N-methylacrylamido)ethoxy)pyrimidin-4-yl)-2-methylbenzyl)-3-(tert-butyl)-1,2,4-oxadiazole-5-carboxamide]: the IC50 at BTK was less than 1 nM; in experiment [1] (setting [2]) it was less than 100 nM.

For the compound `C#CC(=O)N1CCC(Oc2cnccc2-c2ccc(CNC(=O)c3cn(C(C)(C)C)nn3)c(C)c2)C1` (stereo not shown) [Example 43, 1-(tert-butyl)-N-(2-methyl-4-(3-((1-propioloylpyrrolidin-3-yl)oxy)pyridin-4-yl)benzyl)-1H-1,2,3-triazole-4-carboxamide], the IC50 at BTK is 1 to 10 nM; in experiment [1] (setting [2]), more than 1000 nM.

Regarding `C=CC(=O)N(C)CCOc1cnccc1-c1ccc(CNC(=O)c2noc(C(C)(C)C)n2)c(C)c1F` [Example 5, 5-(tert-butyl)-N-(3-fluoro-2-methyl-4-(3-(2-(N-methylacrylamido)ethoxy)pyridin-4-yl)benzyl)-1,2,4-oxadiazole-3-carboxamide], the IC50 was less than 1 nM on BTK and less than 100 nM in experiment [1] (setting [2]).
